Laboratory results published in patent US20110172305A1, “Endocannabinoids for Enhancing Growth and Development in Infants” (priority 2007, published 2011).

Experiments:
[1] = Intracerebral versus subcutaneous injection, pup body weight gain; assay type: in vivo, mouse (ICR strain); conditions: day 1 of birth, FIG. 8A-E
Protocol: Newborn (day 1 of birth) mouse pups (ICR strain) were injected subcutaneously (sc) with SR141716 (SR, 20 or 40 mg/kg), as described previously (Fride, 2004; Fride et al., 2003; Fride et al., 2001). In addition, littermates were injected with SR directly into the brain, at 2 depths (2-3 mm) and at several doses 4.5, 9.0 or 22.5 μg (between 50 and 10-fold lower concentrations than the sc injections).

[2] = Growth and survival of newborn Spiny wild mice; assay type: in vivo, Spiny wild mice (acomys cahirinus); conditions: 50 mg/kg
From the text: FIG. 9A illustrates the relative state of maturation in terms of the growth curve during the first two postnatal weeks in laboratory (ICR strain) mice, compared to Spiny wild mice (acomys cahirinus) which is born at a more advanced stage of development. […] This is similar to the difference in brain maturation predicted by the model designed by Clancy and colleagues (Clancy et al., 2007), i.e., the day of birth of the spiny mouse being equivalent to postnatal day 8 in the laboratory mouse.

[3] = Prepulse inhibition (PPI) of the acoustic startle response; assay type: in vivo, mouse; conditions: treated at birth; FIG. 7
Protocol: Prepulse Inhibition (PPI) of the startle reflex: In this experimental model a weak stimulus (70-90 db tone) inhibits the subsequent response to a strong stimulus (120 db tone). Reduced prepulse inhibition of the startle reflex (PPI) is taken as an additional index of the positive symptoms of schizophrenia (Josselyn and Vaccarino, 1998; Swerdlow and Geyer, 1998). PPI was assessed as described previously (Varty et al., 2001). In the model employed, mice were placed in a startle chamber (Hamilton and Kinder, Poway, Calif., USA). A high frequency loudspeaker produces a 65 db background noise and the various acoustic stimuli: 77 and 81 db prepulse; 120 db startle, separated by 100 ms. The startle response of the mouse is transduced and stored by a computer. Sixty-five readings are taken at 1 ms intervals, and the average amplitude is taken as the startle response. Each test session lasts for about 20 min and consists of 10 presentations of each of the six trial types (Prepulse, Prepulse+Pulse, Pulse or no stimulus other than background) separated by 15 s. The amount of prepulse inhibition is calculated as %PPI=[1-(startle response for Prepulse+Pulse)/(startle response for Pulse alone)]×100.

[4] = Motor activity (ambulation) in an open field at 3 months of age; assay type: in vivo, mouse (ICR strain); conditions: tested at 3 months of age
Protocol: (§1) At adulthood (3 months of age), mice were subjected to the open field assay for motor activity (ambulation and rearing), to the Porsolt forced swim test for anti-depressant-like effects and to the prepulse-inhibited acoustic startle response (PPI) assay which assesses sensorimotor gating.
Motor activity in an Open field: Mice were placed in a transparent open field (30×40 cm, divided into 20 squares of equal size), measuring horizontal (ambulatory) and vertical activity, for 6 minutes (min), by manually scoring the number of squares crossed (see (Fride and Mechoulam, 1993).
The bottom of the open field was divided into 20 squares of equal size. Activity was assessed as the number of squares crossed.

[5] = Porsolt forced swim test at adulthood; assay type: in vivo, mouse (ICR strain); conditions: treated in infancy, tested at adulthood; FIG. 3A
From the text: as §1
Porsolt forced swim test: The forced swimming test was based on previous designs (Harkin et al., 2004; Petit-Demouliere et al., 2005; Treit and Menard, 1998): mice were placed in a 2 liter glass beaker (11 cm diameter) filled with water (24+1° C.) up to […] from the bottom (so that the mouse could not touch the bottom) and 8 cm from the rim (so that the mouse cannot escape). […] Immobility at 9 min was analyzed by a t-test, P<0.05.

[6] = Body weight of pups raised in small or large (malnourished) litters, daily neonatal injections; assay type: in vivo, mouse (ICR strain)
Protocol: (§2) Using an environmental manipulation technique, within 24 hours of birth, half of each mouse litter (ICR strain) was cross-fostered to the dam of another litter born on the same day. The mouse pups of every two litters were divided up between the 2 dams such that one dam reared 4 pups (‘small litter’) and the other dam raised 18-20 pups (large litter). Pups raised in the large litter were expected to suffer from malnutrition due to the crowded environment. Half of each litter received daily injections of the endocannabinoid 2-arachidonoyl glycerol (2-AG) or THC, the major psychoactive molecule in the Cannabis sativa (marihuana) plant for the first 5 days of life. The doses used were 1 or 5 mg/kg THC or 0.1, 1 or 5 mg/kg 2-AG. Body weights were recorded daily. The body weight of pups from the small and the large litters were analyzed by two-way analysis-of-variance.

[7] = Food intake ('milkbands') of pups raised in small or large litters; assay type: in vivo, mouse (ICR strain); conditions: THC 1 or 5 mg/kg, daily injections for the first 5 days of life
Protocol: as §2
On each subsequent day, pups were briefly separated from their mothers for the duration of weighing and scoring of the presence of “milkbands” in their stomachs. (As the stomach area in mouse pups is transparent, due to lack of hair and the thinness of the skin, the amount of milk consumed can be observed as a “milkband”).

## Cc1c(C(=O)NN2CCCCC2)nn(-c2ccc(Cl)cc2Cl)c1-c1ccc(Cl)cc1 [Rimonabant]
[1]; injected directly into the brain, 2-3 mm depth, 4.5, 9.0 or 22.5 μg
  effect on pup growth: none of the centrally injected regimens had any effect on pup growth
[1]; s.c. 20 or 40 mg/kg
  body weight gain: significantly retarded body weight gain
[2]; FIG. 9B, P<0.0001
  growth (body weight): highly significant delay in growth
[2]; FIG. 9C, P<0.01 versus controls
  mortality rate: 60%
[3]
  sensorimotor gating, prepulse inhibition of acoustic startle response (% PPI) versus vehicle control: significantly lower
[4]; rimonabant at birth, ICR strain, FIG. 6, P<0.001
  motor activity in open field (number of squares crossed): hyperactive

## CCCCC/C=C\C/C=C\C/C=C\C/C=C\CCCC(=O)OC(CO)CO [2-AG, 2-arachidonoyl glycerol]
[5]
  behavior in the Forced swim test (immobility time): displayed anti-depressant-like behavior
[6]; 0.1 mg/kg (lowest dose), daily injections for the first 5 days of life
  effect on the growth curve: no effect on the growth curve
[6]; 1 mg/kg, daily injections for the first 5 days of life, malnourished (overcrowded) litters, FIG. 1
  body weight gain: significantly enhanced body weight gain
[6]; 5 mg/kg (highest dose), daily injections for the first 5 days of life
  effect on the growth curve: no effect on the growth curve
[6]; treated as neonates, large litter, FIG. 2
  body weight at 3 months of age versus control mice from large (malnourished) litter: still had elevated body weights
[6]; treated as neonates, overcrowded litter, FIG. 2
  body weight at 3 months of age versus vehicle-treated mice raised in small litters: did not differ significantly
[4]; 2-AG at birth, FIG. 3B
  motor activity in open field (number of squares crossed): did not differ from that of controls

## CCCCCc1cc(O)c2c(c1)OC(C)(C)[C@@H]1CCC(C)=C[C@@H]21 [THC, Δ^9-tetrahydrocannabinol]
[7]
  effect on food intake ('milkbands'): Neither of the doses of THC had an effect
[6]; THC 1 or 5 mg/kg, daily injections for the first 5 days of life
  effect on the body weight curve: Neither of the doses of THC had an effect
